According to patent US12637453B2, “Pyrazolopyridine inhibitors of c-Jun-n-Terminal kinases and uses thereof” (Dana-Farber Cancer Institute, Inc., priority 2019, dated 2026):

Key:
Type in all cases: biochemical
[1] = target: JNK1 (Homo sapiens, UniProt P45983); assay: IC50 assay for JNK kinase inhibition, JNK1
[2] = target: JNK3 (Homo sapiens, UniProt P53779); assay: IC50 assay for JNK kinase inhibition, JNK3
[3] = target: JNK2 (Homo sapiens, UniProt P45984); assay: IC50 assay for JNK kinase inhibition, JNK2
JNK2, sequence (P45984 whole entry): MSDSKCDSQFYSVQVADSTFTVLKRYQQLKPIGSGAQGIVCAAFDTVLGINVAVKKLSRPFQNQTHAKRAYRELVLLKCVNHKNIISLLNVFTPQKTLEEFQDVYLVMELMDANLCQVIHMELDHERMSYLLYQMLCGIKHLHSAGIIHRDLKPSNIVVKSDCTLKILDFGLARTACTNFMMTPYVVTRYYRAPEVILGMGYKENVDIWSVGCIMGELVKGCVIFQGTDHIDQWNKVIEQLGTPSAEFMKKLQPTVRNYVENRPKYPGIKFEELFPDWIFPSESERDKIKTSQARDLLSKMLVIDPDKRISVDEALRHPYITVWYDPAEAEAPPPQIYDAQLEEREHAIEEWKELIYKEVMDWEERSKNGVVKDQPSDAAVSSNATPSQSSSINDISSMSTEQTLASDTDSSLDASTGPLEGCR

JNK3, sequence (P53779 whole entry): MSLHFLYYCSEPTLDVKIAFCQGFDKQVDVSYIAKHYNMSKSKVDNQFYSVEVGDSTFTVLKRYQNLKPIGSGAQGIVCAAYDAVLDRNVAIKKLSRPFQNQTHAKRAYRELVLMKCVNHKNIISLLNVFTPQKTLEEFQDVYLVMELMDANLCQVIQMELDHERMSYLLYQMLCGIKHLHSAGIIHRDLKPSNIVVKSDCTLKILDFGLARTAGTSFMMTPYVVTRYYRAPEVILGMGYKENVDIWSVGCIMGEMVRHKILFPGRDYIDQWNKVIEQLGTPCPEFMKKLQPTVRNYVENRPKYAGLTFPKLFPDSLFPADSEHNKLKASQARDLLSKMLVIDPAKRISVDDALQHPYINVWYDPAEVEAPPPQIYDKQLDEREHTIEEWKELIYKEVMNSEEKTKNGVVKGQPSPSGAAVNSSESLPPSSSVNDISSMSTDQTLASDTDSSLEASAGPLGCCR
JNK1, sequence (P45983 whole entry): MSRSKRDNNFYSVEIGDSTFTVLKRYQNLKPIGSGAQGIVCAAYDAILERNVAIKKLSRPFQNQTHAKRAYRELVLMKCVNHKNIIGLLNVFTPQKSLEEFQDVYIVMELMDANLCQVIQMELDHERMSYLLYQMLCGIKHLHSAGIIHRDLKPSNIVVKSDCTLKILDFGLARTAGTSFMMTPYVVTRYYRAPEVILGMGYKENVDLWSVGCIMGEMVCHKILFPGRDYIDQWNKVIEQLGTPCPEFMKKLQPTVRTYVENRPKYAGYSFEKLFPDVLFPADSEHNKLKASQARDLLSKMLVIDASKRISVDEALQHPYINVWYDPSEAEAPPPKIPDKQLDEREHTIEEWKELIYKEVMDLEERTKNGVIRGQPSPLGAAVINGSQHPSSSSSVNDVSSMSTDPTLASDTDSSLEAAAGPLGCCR

SMILES | IC50 [1] [nM] | IC50 [2] [nM] | IC50 [3] [nM]
CN(C)C/C=C/C(=O)Nc1ccc(C(=O)N2CC[C@H](Nc3nccc(-c4c(-c5ccccc5)nn5ccccc45)n3)C2)cc1 [I-11, (S,E)-4-(dimethylamino)-N-(4-(3-((4-(2-phenylpyrazolo[1,5-a]pyridin-3-yl)pyrimidin-2-yl)amino)pyrrolidine-1-carbonyl)phenyl)but-2-enamide] | 152 | 51.4 | 4.91
CN(C)CCCC(=O)Nc1ccc(C(=O)N2CC[C@H](Nc3nccc(-c4c(-c5ccccc5)nn5ccccc45)n3)C2)cc1 [I-12, (S)-4-(dimethylamino)-N-(4-(3-((4-(2-phenylpyrazolo[1,5-a]pyridin-3-yl)pyrimidin-2-yl)amino)pyrrolidine-1-carbonyl)phenyl)butanamide] | 320 | 110 | 17.6
CN(C)C/C=C/C(=O)Nc1ccc(C(=O)N2CCCC[C@H](Nc3nccc(-c4c(-c5ccccc5)nn5ccccc45)n3)C2)cc1 [I-13, (S,E)-4-(dimethylamino)-N-(4-(3-((4-(2-phenylpyrazolo[1,5-a]pyridin-3-yl)pyrimidin-2-yl)amino)azepane-1-carbonyl)phenyl)but-2-enamide] | 308 | 20 | 31
CN(C)CCCC(=O)Nc1ccc(C(=O)N2CCCC[C@H](Nc3nccc(-c4c(-c5ccccc5)nn5ccccc45)n3)C2)cc1 [I-14, (S)-4-(dimethylamino)-N-(4-(3-((4-(2-phenylpyrazolo[1,5-a]pyridin-3-yl)pyrimidin-2-yl)amino)azepane-1-carbonyl)phenyl)butanamide] | 314 | 252 | 29
CN(C)C/C=C/C(=O)Nc1ccc(C(=O)NC2CCCC(Nc3nccc(-c4c(-c5ccccc5)nn5ccccc45)n3)C2)cc1 (stereo not drawn) [I-15, (E)-4-(4-(dimethylamino)but-2-enamido)-N-(3-((4-(2-phenylpyrazolo[1,5-a]pyridin-3-yl)pyrimidin-2-yl)amino)cyclohexyl)benzamide] | 481 | 40.3 | 38.9
CN(C)C/C=C/C(=O)Nc1ccc(C(=O)N2CC3CC(Nc4nccc(-c5c(-c6ccccc6)nn6ccccc56)n4)C2C3)cc1 (stereo not drawn) [I-17, (E)-4-(dimethylamino)-N-(4-(6-((4-(2-phenylpyrazolo[1,5-a]pyridin-3-yl)pyrimidin-2-yl)amino)-2-azabicyclo[2.2.1]heptane-2-carbonyl)phenyl)but-2-enamide] | > 10000 | > 10000 | 7890
CN(C)C/C=C/C(=O)Nc1ccc2c(N3CC[C@H](Nc4nccc(-c5c(-c6ccccc6)nn6ccccc56)n4)C3)nccc2c1 [I-20, (S,E)-4-(dimethylamino)-N-(1-(3-((4-(2-phenylpyrazolo[1,5-a]pyridin-3-yl)pyrimidin-2-yl)amino)pyrrolidin-1-yl)isoquinolin-6-yl)but-2-enamide] | 168 | 12 | 10
CN(C)C/C=C/C(=O)Nc1ccc(C(=O)N2CC[C@H](Nc3ncc(Cl)c(-c4c(-c5ccccc5)nn5ccccc45)n3)C2)cc1 [I-21, (S,E)-N-(4-(3-((5-chloro-4-(2-phenylpyrazolo[1,5-a]pyridin-3-yl)pyrimidin-2-yl)amino)pyrrolidine-1-carbonyl)phenyl)-4-(dimethylamino)but-2-enamide] | 3360 | 359 | 585
Cc1cccn2nc(-c3ccccc3)c(-c3ccnc(N[C@H]4CCN(C(=O)c5ccc(NC(=O)/C=C/CN(C)C)cc5)C4)n3)c12 [I-23, (S,E)-4-(dimethylamino)-N-(4-(3-((4-(4-methyl-2-phenylpyrazolo[1,5-a]pyridin-3-yl)pyrimidin-2-yl)amino)pyrrolidine-1-carbonyl)phenyl)but-2-enamide] | 1140 | 396 | 142
C[C@H]1CN(C(=O)c2ccc(NC(=O)CCCN(C)C)cc2)C[C@H]1Nc1nccc(-c2c(-c3ccccc3)nn3ccccc23)n1 [I-27, 4-(dimethylamino)-N-(4-((3S,4S)-3-methyl-4-((4-(2-phenylpyrazolo[1,5-a]pyridin-3-yl)pyrimidin-2-yl)amino)pyrrolidine-1-carbonyl)phenyl)butanamide] | 2600 | 790 | 99.5
Cc1ccc2c(-c3ccnc(N[C@@H]4CN(C(=O)c5ccc(NC(=O)/C=C/CN(C)C)cc5)C[C@@H]4C)n3)c(-c3ccccc3)nn2c1 [I-31, (E)-4-(dimethylamino)-N-(4-((3S,4S)-3-methyl-4-((4-(6-methyl-2-phenylpyrazolo[1,5-a]pyridin-3-yl)pyrimidin-2-yl)amino)pyrrolidine-1-carbonyl)phenyl)but-2-enamide] | 2390 | 274 | 85.8
COc1cccn2nc(-c3ccccc3)c(-c3ccnc(N[C@@H]4CN(C(=O)c5ccc(NC(=O)/C=C/CN(C)C)cc5)C[C@@H]4C)n3)c12 [I-32, (E)-4-(dimethylamino)-N-(4-((3S,4S)-3-((4-(4-methoxy-2-phenylpyrazolo[1,5-a]pyridin-3-yl)pyrimidin-2-yl)amino)-4-methylpyrrolidine-1-carbonyl)phenyl)but-2-enamide] | 1810 | > 3330 | 222

The next molecules have a lower IC50 [1] than those just listed; values first:

IC50 [1] [nM] | IC50 [2] [nM] | IC50 [3] [nM] | SMILES
99.3 | 15.7 | 12.4 | CN(C)C/C=C/C(=O)Nc1ccc(NC(=O)N2CC[C@H](Nc3nccc(-c4c(-c5ccccc5)nn5ccccc45)n3)C2)cc1 [I-18, (S,E)-N-(4-(4-(dimethylamino)but-2-enamido)phenyl)-3-((4-(2-phenylpyrazolo[1,5-a]pyridin-3-yl)pyrimidin-2-yl)amino)pyrrolidine-1-carboxamide]
90.7 | 18.3 | 3.92 | CN(C)C/C=C/C(=O)Nc1ccc(C(=O)N2CC[C@H](Nc3nccc(-c4c(-c5cccc(Cl)c5)nn5ccccc45)n3)C2)cc1 [I-25, (S,E)-N-(4-(3-((4-(2-(3-chlorophenyl)pyrazolo[1,5-a]pyridin-3-yl)pyrimidin-2-yl)amino)pyrrolidine-1-carbonyl)phenyl)-4-(dimethylamino)but-2-enamide]
85 | 3.87 | 5.57 | CN(C)C/C=C/C(=O)Nc1ccc(C(=O)N2CC[C@H](Nc3nccc(-c4c(-c5ccc(F)cc5)nn5ccccc45)n3)C2)cc1 [I-22, (S,E)-4-(dimethylamino)-N-(4-(3-((4-(2-(4-fluorophenyl)pyrazolo[1,5-a]pyridin-3-yl)pyrimidin-2-yl)amino)pyrrolidine-1-carbonyl)phenyl)but-2-enamide]
37.6 | 10.9 | 6.94 | CN(C)C/C=C/C(=O)Nc1cccc(C(=O)N2CC[C@H](Nc3nccc(-c4c(-c5ccccc5)nn5ccccc45)n3)C2)c1 [I-16, (S,E)-4-(dimethylamino)-N-(3-(3-((4-(2-phenylpyrazolo[1,5-a]pyridin-3-yl)pyrimidin-2-yl)amino)pyrrolidine-1-carbonyl)phenyl)but-2-enamide]
18.4 | 5.53 | 0.952 | Cc1ccc2c(-c3ccnc(N[C@H]4CCN(C(=O)c5ccc(NC(=O)/C=C/CN(C)C)cc5)C4)n3)c(-c3ccccc3)nn2c1 [I-24, (S,E)-4-(dimethylamino)-N-(4-(3-((4-(6-methyl-2-phenylpyrazolo[1,5-a]pyridin-3-yl)pyrimidin-2-yl)amino)pyrrolidine-1-carbonyl)phenyl)but-2-enamide]
8.9 | 10.3 | 67.6 | CN(C)C/C=C/C(=O)Nc1ccc(C(=O)N2CC[C@H](Nc3nccc(-c4c(-c5ccc(Cl)cc5)nn5ccccc45)n3)C2)cc1 [I-26, (S,E)-N-(4-(3-((4-(2-(4-chlorophenyl)pyrazolo[1,5-a]pyridin-3-yl)pyrimidin-2-yl)amino)pyrrolidine-1-carbonyl)phenyl)-4-(dimethylamino)but-2-enamide]
